Experiments:
MAP3K7 (human) = MAP3K7 (human) (UniProt O43318); assay: radiometric filter-binding kinase assay
MAPK8 (human) = MAPK8 (human) (UniProt P45983); assay: radiometric filter-binding kinase assay
GSK3B (human) = GSK3B (human) (UniProt P49841); assay: radiometric filter-binding kinase assay
PRKD2 (human) = PRKD2 (human) (UniProt Q9BZL6); assay: KINOMEscan competition binding; settings: compound 1.0 µM
EPHB2 (human) = EPHB2 (human) (UniProt P29323); assay: KINOMEscan competition binding; settings: compound 1.0 µM
BRSK2 (human) = BRSK2 (human) (UniProt Q8IWQ3); assay: KINOMEscan competition binding; settings: compound 1.0 µM
RIPK2 (human) = RIPK2 (human) (UniProt O43353); assay: KINOMEscan competition binding; settings: compound 1.0 µM
[1] = molecular target: TYK2 JH1 catalytic (human) (UniProt P29597); assay: KINOMEscan competition binding; settings: compound 1.0 µM
MAP4K5 (human) = MAP4K5 (human) (UniProt Q9Y4K4); assay: KINOMEscan competition binding; settings: compound 1.0 µM
[2] = tested on: MET (human), P08581 [Y1235D]; assay: KINOMEscan competition binding; settings: compound 1.0 µM
VRK2 (human) = VRK2 (human) (UniProt Q86Y07); assay: KINOMEscan competition binding; settings: compound 1.0 µM
EPHA3 (human) = EPHA3 (human) (UniProt P29320); assay: KINOMEscan competition binding; settings: compound 1.0 µM
[3] = tested on: PIK3CA (human), P42336 [M1043I]; assay: KINOMEscan competition binding; settings: compound 1.0 µM
CSNK1A1 (human) = CSNK1A1 (human) (UniProt P48729); assay: KINOMEscan competition binding; settings: compound 1.0 µM
TNIK (human) = TNIK (human) (UniProt Q9UKE5); assay: KINOMEscan competition binding; settings: compound 1.0 µM
NEK6 (human) = NEK6 (human) (UniProt Q9HC98); assay: KINOMEscan competition binding; settings: compound 1.0 µM
CLK2 (human) = CLK2 (human) (UniProt P49760); assay: KINOMEscan competition binding; settings: compound 1.0 µM
ACVRL1 (human) = ACVRL1 (human) (UniProt P37023); assay: KINOMEscan competition binding; settings: compound 1.0 µM
RPS6KA1 KD1 (human) = RPS6KA1 KD1 (human) (UniProt Q15418); assay: KINOMEscan competition binding; settings: compound 1.0 µM
STK32C (human) = STK32C (human) (UniProt Q86UX6); assay: KINOMEscan competition binding; settings: compound 1.0 µM
DCLK3 (human) = DCLK3 (human) (UniProt Q9C098); assay: KINOMEscan competition binding; settings: compound 1.0 µM
MAP3K15 (human) = MAP3K15 (human) (UniProt Q6ZN16); assay: KINOMEscan competition binding; settings: compound 1.0 µM
MAPK7 (human) = MAPK7 (human) (UniProt Q13164); assay: KINOMEscan competition binding; settings: compound 1.0 µM
SRC (human) = SRC (human) (UniProt P12931); assay: KINOMEscan competition binding; settings: compound 1.0 µM
RPS6KA3 KD1 (human) = RPS6KA3 KD1 (human) (UniProt P51812); assay: KINOMEscan competition binding; settings: compound 1.0 µM
PDGFRB (human) = PDGFRB (human) (UniProt P09619); assay: KINOMEscan competition binding; settings: compound 1.0 µM
MAPK4 (human) = MAPK4 (human) (UniProt P31152); assay: KINOMEscan competition binding; settings: compound 1.0 µM
[4] = tested on: FLT3 (human), P36888 [N841I]; assay: KINOMEscan competition binding; settings: compound 1.0 µM
BRSK1 (human) = BRSK1 (human) (UniProt Q8TDC3); assay: KINOMEscan competition binding; settings: compound 1.0 µM
MAP3K2 (human) = MAP3K2 (human) (UniProt Q9Y2U5); assay: KINOMEscan competition binding; settings: compound 1.0 µM
GSK3A (human) = GSK3A (human) (UniProt P49840); assay: KINOMEscan competition binding; settings: compound 1.0 µM
PIK3C2G (human) = PIK3C2G (human) (UniProt O75747); assay: KINOMEscan competition binding; settings: compound 1.0 µM
RIOK1 (human) = RIOK1 (human) (UniProt Q9BRS2); assay: KINOMEscan competition binding; settings: compound 1.0 µM
FGFR3 (human) = FGFR3 (human) (UniProt P22607); assay: KINOMEscan competition binding; settings: compound 1.0 µM
HIPK3 (human) = HIPK3 (human) (UniProt Q9H422); assay: KINOMEscan competition binding; settings: compound 1.0 µM
[5] = tested on: KIT (human), P10721 [D816H]; assay: KINOMEscan competition binding; settings: compound 1.0 µM
MAP2K1 (human) = MAP2K1 (human) (UniProt Q02750); assay: KINOMEscan competition binding; settings: compound 1.0 µM
PRKCE (human) = PRKCE (human) (UniProt Q02156); assay: KINOMEscan competition binding; settings: compound 1.0 µM
PRKG1 (human) = PRKG1 (human) (UniProt Q13976); assay: KINOMEscan competition binding; settings: compound 1.0 µM
NEK3 (human) = NEK3 (human) (UniProt P51956); assay: KINOMEscan competition binding; settings: compound 1.0 µM
PLK4 (human) = PLK4 (human) (UniProt O00444); assay: KINOMEscan competition binding; settings: compound 1.0 µM
ANKK1 (human) = ANKK1 (human) (UniProt Q8NFD2); assay: KINOMEscan competition binding; settings: compound 1.0 µM

Chain of PRKCE (human) (Q02156 whole entry, looked up): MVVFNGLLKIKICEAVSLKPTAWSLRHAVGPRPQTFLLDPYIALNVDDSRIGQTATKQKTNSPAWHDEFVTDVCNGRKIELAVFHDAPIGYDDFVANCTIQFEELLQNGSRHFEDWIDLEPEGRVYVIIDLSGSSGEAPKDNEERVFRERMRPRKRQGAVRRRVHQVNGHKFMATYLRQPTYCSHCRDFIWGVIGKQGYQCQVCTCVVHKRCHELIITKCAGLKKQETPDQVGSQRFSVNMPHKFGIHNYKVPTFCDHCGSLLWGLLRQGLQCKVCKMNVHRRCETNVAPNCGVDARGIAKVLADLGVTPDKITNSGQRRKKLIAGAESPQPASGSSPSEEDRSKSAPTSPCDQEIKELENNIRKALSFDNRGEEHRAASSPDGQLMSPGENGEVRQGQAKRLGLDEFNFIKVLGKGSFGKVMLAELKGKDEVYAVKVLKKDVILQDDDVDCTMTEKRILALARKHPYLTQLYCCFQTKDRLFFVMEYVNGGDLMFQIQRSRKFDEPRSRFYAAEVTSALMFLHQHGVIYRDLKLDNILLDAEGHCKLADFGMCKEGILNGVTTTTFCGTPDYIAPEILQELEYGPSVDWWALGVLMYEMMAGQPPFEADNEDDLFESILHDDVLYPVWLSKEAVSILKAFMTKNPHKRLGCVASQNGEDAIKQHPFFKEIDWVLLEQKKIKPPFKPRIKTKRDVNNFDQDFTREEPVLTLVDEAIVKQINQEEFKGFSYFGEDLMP
Chain of PIK3CA (human), P42336 [M1043I] (P42336 whole entry M1043I, looked up): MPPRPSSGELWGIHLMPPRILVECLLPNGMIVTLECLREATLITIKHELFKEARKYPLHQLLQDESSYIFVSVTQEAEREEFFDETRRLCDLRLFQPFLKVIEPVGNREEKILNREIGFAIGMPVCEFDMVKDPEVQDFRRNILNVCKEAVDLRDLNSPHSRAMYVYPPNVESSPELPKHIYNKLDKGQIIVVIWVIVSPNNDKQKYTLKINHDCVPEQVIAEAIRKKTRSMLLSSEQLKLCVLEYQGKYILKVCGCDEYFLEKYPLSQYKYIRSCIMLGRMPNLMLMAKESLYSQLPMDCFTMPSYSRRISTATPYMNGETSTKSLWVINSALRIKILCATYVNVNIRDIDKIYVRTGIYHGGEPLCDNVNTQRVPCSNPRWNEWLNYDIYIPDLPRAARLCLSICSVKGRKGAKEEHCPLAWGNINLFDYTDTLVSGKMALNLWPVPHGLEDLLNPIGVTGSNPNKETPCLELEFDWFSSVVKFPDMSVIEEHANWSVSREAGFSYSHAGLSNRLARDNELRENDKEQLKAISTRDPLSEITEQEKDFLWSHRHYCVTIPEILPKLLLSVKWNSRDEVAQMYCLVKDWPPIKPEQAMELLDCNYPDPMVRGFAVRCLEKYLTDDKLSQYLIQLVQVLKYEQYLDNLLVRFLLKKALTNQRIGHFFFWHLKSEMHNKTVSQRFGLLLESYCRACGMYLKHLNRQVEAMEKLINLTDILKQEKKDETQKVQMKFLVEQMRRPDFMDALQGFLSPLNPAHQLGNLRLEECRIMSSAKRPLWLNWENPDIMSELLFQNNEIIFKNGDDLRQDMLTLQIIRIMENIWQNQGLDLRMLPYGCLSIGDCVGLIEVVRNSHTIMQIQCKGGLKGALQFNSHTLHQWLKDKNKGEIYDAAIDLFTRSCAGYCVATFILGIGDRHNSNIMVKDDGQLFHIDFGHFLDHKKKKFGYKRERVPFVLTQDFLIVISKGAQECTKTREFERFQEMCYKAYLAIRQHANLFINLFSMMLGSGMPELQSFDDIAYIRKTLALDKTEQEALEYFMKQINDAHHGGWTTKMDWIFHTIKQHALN
Chain of NEK6 (human) (Q9HC98 whole entry, looked up): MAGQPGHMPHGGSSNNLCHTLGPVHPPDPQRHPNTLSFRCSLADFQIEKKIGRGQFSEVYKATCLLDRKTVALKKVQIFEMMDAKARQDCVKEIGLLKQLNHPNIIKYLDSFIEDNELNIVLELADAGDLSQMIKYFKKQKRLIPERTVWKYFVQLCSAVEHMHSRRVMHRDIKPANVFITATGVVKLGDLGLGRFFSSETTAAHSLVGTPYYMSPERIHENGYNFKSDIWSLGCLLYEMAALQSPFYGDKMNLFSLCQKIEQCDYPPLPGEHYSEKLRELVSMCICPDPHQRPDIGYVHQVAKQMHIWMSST
Chain of RPS6KA3 KD1 (human) (P51812 whole entry, looked up): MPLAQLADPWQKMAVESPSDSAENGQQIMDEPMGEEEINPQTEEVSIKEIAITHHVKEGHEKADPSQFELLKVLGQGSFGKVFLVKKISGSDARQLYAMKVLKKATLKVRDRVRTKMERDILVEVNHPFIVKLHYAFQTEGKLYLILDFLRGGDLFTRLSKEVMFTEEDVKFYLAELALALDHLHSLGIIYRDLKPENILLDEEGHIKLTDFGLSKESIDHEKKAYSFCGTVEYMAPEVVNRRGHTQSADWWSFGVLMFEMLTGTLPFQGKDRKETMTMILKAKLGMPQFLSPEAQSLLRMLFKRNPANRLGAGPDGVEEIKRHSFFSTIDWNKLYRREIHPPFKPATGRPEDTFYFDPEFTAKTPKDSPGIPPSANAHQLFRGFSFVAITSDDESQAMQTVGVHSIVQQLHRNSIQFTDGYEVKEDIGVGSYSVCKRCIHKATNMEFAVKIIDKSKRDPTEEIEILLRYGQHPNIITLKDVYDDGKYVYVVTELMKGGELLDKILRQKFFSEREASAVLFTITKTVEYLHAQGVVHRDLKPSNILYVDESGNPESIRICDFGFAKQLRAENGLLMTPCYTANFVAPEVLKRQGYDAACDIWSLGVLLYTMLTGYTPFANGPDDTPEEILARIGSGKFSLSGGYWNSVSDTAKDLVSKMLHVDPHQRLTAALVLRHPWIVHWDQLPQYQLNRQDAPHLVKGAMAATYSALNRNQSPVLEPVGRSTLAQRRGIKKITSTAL
Chain of GSK3B (human) (P49841 whole entry, looked up): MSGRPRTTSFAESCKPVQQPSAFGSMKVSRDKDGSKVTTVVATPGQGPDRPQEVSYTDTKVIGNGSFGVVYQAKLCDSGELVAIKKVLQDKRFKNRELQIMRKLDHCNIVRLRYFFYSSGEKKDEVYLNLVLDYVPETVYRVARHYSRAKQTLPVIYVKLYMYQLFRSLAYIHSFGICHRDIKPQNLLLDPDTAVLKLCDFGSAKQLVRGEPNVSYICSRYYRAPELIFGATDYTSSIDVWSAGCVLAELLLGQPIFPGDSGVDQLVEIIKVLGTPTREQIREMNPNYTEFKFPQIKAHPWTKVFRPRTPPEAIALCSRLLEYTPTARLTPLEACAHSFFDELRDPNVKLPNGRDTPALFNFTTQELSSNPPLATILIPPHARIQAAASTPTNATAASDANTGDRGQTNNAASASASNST
Chain of PIK3C2G (human) (O75747 whole entry, looked up): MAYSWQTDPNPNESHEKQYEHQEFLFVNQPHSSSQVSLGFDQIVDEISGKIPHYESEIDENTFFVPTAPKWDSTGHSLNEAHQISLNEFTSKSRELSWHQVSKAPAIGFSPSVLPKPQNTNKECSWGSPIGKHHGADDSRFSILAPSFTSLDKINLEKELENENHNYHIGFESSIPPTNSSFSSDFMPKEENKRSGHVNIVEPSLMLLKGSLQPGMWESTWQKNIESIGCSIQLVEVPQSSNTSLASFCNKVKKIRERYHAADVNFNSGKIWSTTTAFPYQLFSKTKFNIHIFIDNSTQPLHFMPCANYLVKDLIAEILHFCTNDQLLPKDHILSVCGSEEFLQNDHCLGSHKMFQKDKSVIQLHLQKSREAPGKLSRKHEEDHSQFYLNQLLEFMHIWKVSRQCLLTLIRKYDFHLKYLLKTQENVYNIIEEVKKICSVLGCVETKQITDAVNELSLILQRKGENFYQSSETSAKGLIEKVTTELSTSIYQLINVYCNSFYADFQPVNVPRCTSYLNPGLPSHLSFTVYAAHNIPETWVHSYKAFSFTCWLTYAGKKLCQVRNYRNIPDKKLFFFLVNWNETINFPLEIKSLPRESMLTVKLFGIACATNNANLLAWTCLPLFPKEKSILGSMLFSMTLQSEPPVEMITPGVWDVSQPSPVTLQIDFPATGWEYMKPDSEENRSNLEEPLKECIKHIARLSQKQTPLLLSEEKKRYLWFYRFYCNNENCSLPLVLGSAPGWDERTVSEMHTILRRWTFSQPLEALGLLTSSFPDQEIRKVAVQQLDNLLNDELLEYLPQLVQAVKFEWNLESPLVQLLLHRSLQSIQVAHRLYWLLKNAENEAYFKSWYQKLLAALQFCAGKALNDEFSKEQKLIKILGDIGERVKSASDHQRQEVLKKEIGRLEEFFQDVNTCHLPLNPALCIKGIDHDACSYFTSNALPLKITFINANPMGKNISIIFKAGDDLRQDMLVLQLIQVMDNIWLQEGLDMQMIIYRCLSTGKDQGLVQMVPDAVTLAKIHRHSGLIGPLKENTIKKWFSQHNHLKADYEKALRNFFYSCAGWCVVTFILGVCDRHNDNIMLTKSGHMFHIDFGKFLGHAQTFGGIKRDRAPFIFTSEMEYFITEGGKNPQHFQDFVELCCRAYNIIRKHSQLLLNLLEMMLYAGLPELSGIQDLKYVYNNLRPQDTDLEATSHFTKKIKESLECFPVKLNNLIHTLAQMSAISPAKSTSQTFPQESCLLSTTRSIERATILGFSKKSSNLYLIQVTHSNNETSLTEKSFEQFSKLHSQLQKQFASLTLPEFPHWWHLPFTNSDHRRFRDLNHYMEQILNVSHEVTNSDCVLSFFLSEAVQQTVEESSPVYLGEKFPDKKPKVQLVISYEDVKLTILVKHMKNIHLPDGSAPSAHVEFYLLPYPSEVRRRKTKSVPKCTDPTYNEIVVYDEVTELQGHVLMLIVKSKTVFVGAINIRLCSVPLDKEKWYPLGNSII

CN(C)C/C=C/C(=O)Nc1cccc(C(=O)Nc2ccc(Nc3nccc(/C(C#N)=C4\Nc5ccccc5S4)n3)cc2)c1
IC50 (MAP3K7 (human)): 866 nM | IC50 (MAPK8 (human)): 327 nM | IC50 (GSK3B (human)): 84 nM | kinase still bound, per cent of control (PRKD2 (human)): 100% | kinase still bound, per cent of control (EPHB2 (human)): 77% | kinase still bound, per cent of control (BRSK2 (human)): 100% | kinase still bound, per cent of control (RIPK2 (human)): 100% | kinase still bound, per cent of control [1]: 72% | kinase still bound, per cent of control (MAP4K5 (human)): 100% | kinase still bound, per cent of control [2]: 100% | kinase still bound, per cent of control (VRK2 (human)): 100% | kinase still bound, per cent of control (EPHA3 (human)): 100% | kinase still bound, per cent of control [3]: 100% | kinase still bound, per cent of control (CSNK1A1 (human)): 75% | kinase still bound, per cent of control (TNIK (human)): 100% | kinase still bound, per cent of control (NEK6 (human)): 100% | kinase still bound, per cent of control (CLK2 (human)): 100% | kinase still bound, per cent of control (ACVRL1 (human)): 100% | kinase still bound, per cent of control (RPS6KA1 KD1 (human)): 100% | kinase still bound, per cent of control (STK32C (human)): 100% | kinase still bound, per cent of control (DCLK3 (human)): 100% | kinase still bound, per cent of control (MAP3K15 (human)): 100% | kinase still bound, per cent of control (MAPK7 (human)): 100% | kinase still bound, per cent of control (SRC (human)): 100% | kinase still bound, per cent of control (RPS6KA3 KD1 (human)): 87% | kinase still bound, per cent of control (PDGFRB (human)): 35% | kinase still bound, per cent of control (MAPK4 (human)): 100% | kinase still bound, per cent of control [4]: 51% | kinase still bound, per cent of control (BRSK1 (human)): 90% | kinase still bound, per cent of control (MAP3K2 (human)): 100% | kinase still bound, per cent of control (GSK3A (human)): 59% | kinase still bound, per cent of control (PIK3C2G (human)): 100% | kinase still bound, per cent of control (RIOK1 (human)): 14% | kinase still bound, per cent of control (FGFR3 (human)): 100% | kinase still bound, per cent of control (HIPK3 (human)): 85% | kinase still bound, per cent of control [5]: 100% | kinase still bound, per cent of control (MAP2K1 (human)): 100% | kinase still bound, per cent of control (PRKCE (human)): 100% | kinase still bound, per cent of control (PRKG1 (human)): 100% | kinase still bound, per cent of control (NEK3 (human)): 100% | kinase still bound, per cent of control (PLK4 (human)): 97% | kinase still bound, per cent of control (ANKK1 (human)): 100%
